Measured values reported in paper PMC12406192, “Sustainable Joullié–Ugi and Continuous Flow Implementation Led to Novel Captopril-Inspired Broad-Spectrum Metallo-β-Lactamase Inhibitors” (Journal of Medicinal Chemistry, 2025).
Converted amounts (≈) assume the structure as drawn.

Assays:
[1] = test system: K. pneumoniae 7023 (bla VIM‑1 +); experiment: Imipenem MIC, broth microdilution, with fixed concentration of compound; format: cell-based; details: for imipenem MIC, K. pneumoniae 7023 (bla VIM‑1 +): compound at 32 μg/mL, median of three experiments
Method: (§1) In vitro antimicrobial susceptibility testing was performed according to established standards. […] The strains used in the study were described elsewhere.

[2] = test system: K. pneumoniae VA-416/02 (bla VIM‑4 +); experiment: as above; format: cell-based; details: for imipenem MIC, K. pneumoniae VA-416/02 (bla VIM‑4 +): compound at 32 μg/mL, median of three experiments
Method: as §1

[3] = test system: A. baumannii AC-54/97 (bla IMP‑2 +); experiment: as above; format: cell-based; details: for imipenem MIC, A. baumannii AC-54/97 (bla IMP‑2 +): compound at 32 μg/mL, median of three experiments
Method: as §1

NDM-1 [4] = molecular target: T1, NDM-1 (Klebsiella pneumoniae, UniProt C7C422); experiment: Spectrophotometric direct competition assay, imipenem hydrolysis (reporter substrate); format: biochemical; details: for inhibition at 50 µM: read-out: percentage of inhibition NDM-1
T1 construct: made in house; host or cells: E. coli
Method: (§2) IC50 values were determined in a kinetic fluorescence-based in vitro assay as described previously. All compounds were preincubated with the recombinant protein for 30 min before addition of the fluorogenic substrate fluorocillin. , The inhibitory activity was also determined (expressed as the percentage of inhibition in the presence of 50 μM compound) using a spectrophotometric assay in which the hydrolysis of imipenem (the reporter substrate) was monitored (see Section for details).
(§3) The inhibitory activity of the compounds was determined using enzyme assays with recombinant NDM-1, VIM-1, VIM-2, IMP-1, and IMP-7. These enzymes were produced in E. coli and purified as previously described. , The fluorogenic substrate fluorocillin was synthesized according to the procedure described by Rukavishnikov et al. The assays were performed in 96-well format using black polystyrene plates (Corning, Corning, NY) at room temperature, and the measurements were carried out on the Tecan spectrophotometer Infinite F200 PRO (Tecan, Männedorf, Switzerland). The protein stock solutions were diluted in assay buffer (HEPES 50 mM, pH 7.5 containing 0.01%Triton X-100, buffer HX) to reach final concentrations of VIM-1–4 nM, IMP-7–0.1 nM; NDM-1–3 nM. Subsequently, 89 μL of the protein solution was mixed with 1 μL of the inhibitor diluted in DMSO (final DMSO concentration 1% at final assay volume of 100 μL) and incubated for 30 min. […] Negative controls were measured in the absence of enzyme (89 μL of assay buffer), whereas the positive controls were measured in the presence of enzyme and in the absence of inhibitors (1 μL of DMSO). Each measurement was performed in triplicate in three independent experiments. IC50 values were calculated using data obtained from measurements with at least eight different inhibitor concentrations, applying a sigmoidal dose–response (variable slope with four parameters) equation using GraphPad Prism 5 (GraphPad Software, La Jolla, CA) software. […] All assays were performed in at least in triplicate.

[5] = test system: E. coli SI–N003 (bla NDM‑7 +); format: cell-based; details: compound at 32 μg/mL; median of three experiments
Method: as §1

[6] = test system: E. coli SI-G001 (bla NDM‑4 +); format: cell-based; details: compound at 32 μg/mL; median of three experiments
Method: as §1

[7] = test system: E. coli SI-M001 (bla NDM‑1 +); experiment: Imipenem MIC, broth microdilution, with fixed concentration of compound; format: cell-based; details: for imipenem MIC, E. coli SI-M001 (bla NDM‑1 +): compound at 32 μg/mL, median of three experiments
Method: (§4) In vitro antimicrobial susceptibility testing was performed according to established standards. […]. The strains used in the study were described elsewhere.

IMP-1 = molecular target: T2, IMP-1 (Serratia marcescens, UniProt P52699); experiment: biochemical; details: for inhibition at 50 µM: read-out: percentage of inhibition IMP-1
T2 construct: made in house; host or cells: E. coli
Method: as §2, §3

VIM-2 [8] = molecular target: T3, VIM-2 (Escherichia coli, UniProt Q5U7L7); experiment: biochemical; details: read-out: percentage of inhibition VIM-2
T3 construct: made in house; host or cells: E. coli
Method: as §2, §3

[9] = molecular target: T4, human angiotensin-converting enzyme 1 (ACE-1) (Homo sapiens, UniProt P12821); experiment: ACE Activity Assay Kit, fluorogenic substrate; format: biochemical; details: 50 μM inhibitor
T4 construct: purchased Sigma-Aldrich CS0002
Method: To assess the selectivity of the compounds, their inhibitory activity on human angiotensin-converting enzyme 1 (ACE-1) was performed using the ACE Activity Assay Kit (Sigma-Aldrich cat. No. CS0002). […] Captopril (racemic mixture, D- and L-stereoisomers) was used as control in these experiments.

NDM-1 [10] = molecular target: T1, NDM-1; experiment: Kinetic fluorescence-based in vitro assay with fluorocillin substrate (IC50); format: biochemical; details: 30 min preincubation
Method: as §2, §3

VIM-2 [11] = molecular target: T3, VIM-2; experiment: biochemical; details: competitive model, imipenem reporter substrate; read-out: K i VIM-2
[12] = test system: S. marcescens SI-1591 (bla VIM‑2 +); experiment: microbe, parasite or virus in culture; format: cell-based; details: for imipenem MIC, S. marcescens SI-1591 (bla VIM‑2 +): compound at 32 μg/mL, median of three experiments
Method: as §1

[13] = test system: K. pneumoniae T2216 (bla VIM‑1 +); experiment: Imipenem MIC, broth microdilution, with fixed concentration of compound; format: cell-based; details: Klebsiella pneumoniae, read-out: imipenem MIC, K. pneumoniae T2216 (bla VIM‑1 +)
Method: as §1

[14] = test system: P. aeruginosa T2325 (bla IMP‑1 +); experiment: as above; format: cell-based; details: Pseudomonas aeruginosa, read-out: imipenem MIC, P. aeruginosa T2325 (bla IMP‑1 +)
Method: as §1

[15] = test system: K. pneumoniae T2301 (bla NDM‑1 +); experiment: as above; format: cell-based; details: Klebsiella pneumoniae; imipenem alone (compound: None)
Method: as §4

T1 sequence (C7C422 29-270 limits assumed): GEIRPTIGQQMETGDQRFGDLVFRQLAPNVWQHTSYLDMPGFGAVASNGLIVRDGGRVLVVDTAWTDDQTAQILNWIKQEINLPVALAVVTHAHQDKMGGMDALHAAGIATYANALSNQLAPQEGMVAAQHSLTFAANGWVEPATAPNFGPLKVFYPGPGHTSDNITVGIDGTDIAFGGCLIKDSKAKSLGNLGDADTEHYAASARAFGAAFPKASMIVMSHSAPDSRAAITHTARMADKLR
T2 sequence (P52699 19-246, looked up, species assumed): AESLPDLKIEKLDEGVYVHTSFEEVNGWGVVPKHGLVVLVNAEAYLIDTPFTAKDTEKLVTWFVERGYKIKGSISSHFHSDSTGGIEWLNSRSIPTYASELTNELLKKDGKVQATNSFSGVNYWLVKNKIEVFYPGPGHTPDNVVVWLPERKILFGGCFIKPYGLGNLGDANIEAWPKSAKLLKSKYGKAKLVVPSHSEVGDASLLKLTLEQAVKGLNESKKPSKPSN
T4 sequence (P12821 30-1306): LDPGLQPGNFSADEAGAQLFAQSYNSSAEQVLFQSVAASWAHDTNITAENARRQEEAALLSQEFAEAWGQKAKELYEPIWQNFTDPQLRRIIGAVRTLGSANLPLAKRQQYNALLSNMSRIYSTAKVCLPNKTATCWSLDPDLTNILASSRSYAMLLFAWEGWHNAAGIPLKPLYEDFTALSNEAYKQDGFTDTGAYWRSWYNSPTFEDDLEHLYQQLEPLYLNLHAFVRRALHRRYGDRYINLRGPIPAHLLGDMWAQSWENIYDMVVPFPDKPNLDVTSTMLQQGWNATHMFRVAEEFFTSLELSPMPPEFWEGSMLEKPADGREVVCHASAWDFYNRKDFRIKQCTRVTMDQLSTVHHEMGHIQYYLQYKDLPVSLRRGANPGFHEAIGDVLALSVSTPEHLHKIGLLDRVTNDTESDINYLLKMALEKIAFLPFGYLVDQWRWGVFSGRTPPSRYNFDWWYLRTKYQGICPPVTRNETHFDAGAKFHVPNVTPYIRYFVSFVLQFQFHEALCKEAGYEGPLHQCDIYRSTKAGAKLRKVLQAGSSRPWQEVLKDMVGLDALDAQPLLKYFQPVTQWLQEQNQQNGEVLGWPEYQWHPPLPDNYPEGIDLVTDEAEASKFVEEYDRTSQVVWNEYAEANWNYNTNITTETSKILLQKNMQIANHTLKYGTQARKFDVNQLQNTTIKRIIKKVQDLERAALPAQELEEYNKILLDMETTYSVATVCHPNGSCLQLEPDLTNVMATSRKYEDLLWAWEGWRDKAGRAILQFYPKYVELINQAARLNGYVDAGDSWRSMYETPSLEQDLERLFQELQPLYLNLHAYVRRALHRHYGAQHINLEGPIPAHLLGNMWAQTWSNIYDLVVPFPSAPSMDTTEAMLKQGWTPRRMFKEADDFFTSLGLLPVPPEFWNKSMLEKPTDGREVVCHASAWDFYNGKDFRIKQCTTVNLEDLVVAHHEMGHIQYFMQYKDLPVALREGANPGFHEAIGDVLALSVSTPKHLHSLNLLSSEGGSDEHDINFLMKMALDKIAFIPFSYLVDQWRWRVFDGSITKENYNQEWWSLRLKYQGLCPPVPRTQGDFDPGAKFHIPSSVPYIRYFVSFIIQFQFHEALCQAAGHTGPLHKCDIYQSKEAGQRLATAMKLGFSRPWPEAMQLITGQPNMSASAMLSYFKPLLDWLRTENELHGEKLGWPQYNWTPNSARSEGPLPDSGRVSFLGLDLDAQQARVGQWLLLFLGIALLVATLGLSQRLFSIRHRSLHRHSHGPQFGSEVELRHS

Compound	imipenem MIC, K. pneumoniae 7023 (bla VIM‑1 +) [1] [µg/mL]	imipenem MIC, K. pneumoniae VA-416/02 (bla VIM‑4 +) [2] [µg/mL]	imipenem MIC, A. baumannii AC-54/97 (bla IMP‑2 +) [3] [µg/mL]	inhibition at 50 µM (NDM-1 [4]) [%]	imipenem MIC, E. coli SI–N003 (bla NDM‑7 +) [5] [µg/mL]	imipenem MIC, E. coli SI-G001 (bla NDM‑4 +) [6] [µg/mL]	imipenem MIC, E. coli SI-M001 (bla NDM‑1 +) [7] [µg/mL]	inhibition at 50 µM (IMP-1) [%]	inhibition at 50 µM (VIM-2 [8]) [%]	IC50 (NDM-1 [10]) [µM]	imipenem MIC, S. marcescens SI-1591 (bla VIM‑2 +) [12] [µg/mL]	also measured
CCC1(CC)c2ccccc2N(C(=O)[C@H](C)CS)[C@@H]1C(N)=O [6c, (S)-3,3-Diethyl-1-((S)-3-mercapto-2-methylpropanoyl)indoline-2-carboxamide]	128	128	128	81	64	64	64	66	96	8.4	8	Ki (NDM-1 [4]; competitive model, imipenem reporter substrate, read-out: K i NDM-1): 4.5 ± 0.7 µM; Ki (IMP-1; competitive model, imipenem reporter substrate, read-out: K i IMP-1): 4.9 ± 0.3 µM; inhibition at 50 µM [9]: < 5%; Ki (VIM-2 [11]): 0.16 ± 0.01 µM
CCC1(CC)c2ccccc2N(C(=O)[C@H](C)CS)[C@H]1C(=O)NCC(=O)O [7d, ((R)-3,3-Diethyl-1-((S)-3-mercapto-2-methylpropanoyl)indoline-2-carbonyl)glycine]	128	128	128	67	64	64	64	17	69	10	16	–
CCC1(CC)c2ccccc2N(C(=O)[C@H](C)CSC(C)=O)[C@H]1C(N)=O [(S,R′)-14b, ((S)-3-((R)-2-Carbamoyl-3,3-diethylindolin-1-yl)-2-methyl-3-oxopropyl)ethanethioate]	64	128	128	≤ 10	64	64	32	≤ 10	15	–	8	–
C[C@H](CS)C(=O)N1c2ccccc2C(C)(C)[C@H]1C(=O)NCC(=O)O [7a, ((S)-1-((S)-3-Mercapto-2-methylpropanoyl)-3,3-dimethylindoline-2-carbonyl)glycine]	128	128	128	28	64	64	64	≤ 10	38	40	8	–
C[C@H](CS)C(=O)N1CCC[C@@H]1C(=O)O [D-captopril, reference compound]	–	–	–	86	–	–	–	–	–	–	–	–
C[C@@H](O)[C@H]1C(=O)N2C(C(=O)O)=C(SCCN=CN)C[C@H]12 [imipenem, reference compound]	–	–	–	–	–	–	–	–	–	–	–	MIC [13]: 4 µg/mL (≈ 13.4 µM); MIC ([1]; Klebsiella pneumoniae, read-out: imipenem MIC, K. pneumoniae 7023 (bla VIM‑1 +)): 128 µg/mL (≈ 428 µM); MIC [14]: 64 µg/mL (≈ 214 µM); MIC ([2]; Klebsiella pneumoniae, read-out: imipenem MIC, K. pneumoniae VA-416/02 (bla VIM‑4 +)): 128 µg/mL (≈ 428 µM); MIC ([3]; Acinetobacter baumannii, read-out: imipenem MIC, A. baumannii AC-54/97 (bla IMP‑2 +)): 128 µg/mL (≈ 428 µM); MIC ([7]; Escherichia coli, imipenem alone (compound: None)): 64 µg/mL (≈ 214 µM); MIC [15]: 16 µg/mL (≈ 53.4 µM); MIC ([12]; Serratia marcescens, read-out: imipenem MIC, S. marcescens SI-1591 (bla VIM‑2 +)): 16 µg/mL (≈ 53.4 µM)
C[C@H](CS)C(=O)N1CCC[C@H]1C(=O)O [L-captopril, reference compound]	–	–	–	76	–	–	–	–	–	–	–	–
CCC1(CC)c2ccccc2N(C(=O)[C@H](C)CS)[C@@H]1C(=O)NCC(=O)O [7c, ((S)-3,3-Diethyl-1-((S)-3-mercapto-2-methylpropanoyl)indoline-2-carbonyl)glycine]	128	128	128	43	64	64	64	27	55	41	16	–
CC(=O)SC[C@@H](C)C(=O)N1c2ccccc2C2(CCCCC2)[C@H]1C(N)=O [(S,S′)-14c, ((S)-3-((S)-2′-Carbamoylspiro[cyclohexane-1,3′-indolin]-1′-yl)-2-methyl-3-oxopropyl)ethanethioate]	64	128	128	≤ 10	32	32	16	≤ 10	17	–	8	–
